Results taken from patent publication US20260021196A1, “HOMOGENEOUS ANTIBODY-CONJUGATES WITH HIGH PAYLOAD LOADING” (SYNAFFIX B.V., priority 2023, published 2026).

How the values were obtained:
Assay type in all cases: cell-based
[1] = test system: NCI-N87 (HER2 3+) cells; assay: In vitro cytotoxicity, resazurin cell viability (Examples 131-133); details: Homo sapiens, NCI-N87, 120 h; Table 8 / FIG. 22A, DAR8 ADCs and free payloads, 5 days incubation
Method: (§1) The cells were incubated for 5 days in a humidified atmosphere at 37° C. and 5% CO2. […] After approximately 4 hours in a humidified atmosphere at 37° C. and 5% CO2 the fluorescence was detected with a fluorescence plate reader (Infinite® M1000 Tecan) at 560 nm excitation and 590 nm emission. The relative fluorescent units (RFU) were normalized to cell viability percentage by setting wells without cells at 0% viability and wells with untreated cells at 100% viability (see FIGS. 22A-22C).
(§2) After approximately 4 hours in a humidified atmosphere at 37° C. and 5% CO2 the fluorescence was detected with a fluorescence plate reader (Infinite® M1000 Tecan) at 560 nm excitation and 590 nm emission. The relative fluorescent units (RFU) were normalized to cell viability percentage by setting wells without cells at 0% viability and wells with untreated cells at 100% viability (see FIGS. 23A-23B).
as §1, with “24A-24B).” for “22A-22C).”

[2] = test system: MDA-MB-231 (HER2−) cells; assay: In vitro cytotoxicity, negative control cell line (Examples 131-133); details: Homo sapiens, MDA-MB-231, 120 h, Table 8 / FIG. 22C, 5 days incubation, read-out: IC50 (MDA-MB231 cells)
Method: as §1, §2
as §1, with “24A-24B).” for “22A-22C).”

[3] = test system: BT-474 cells; assay: In vitro cytotoxicity (Example 131); details: Homo sapiens, Table 8 / FIG. 22B, DAR8 ADCs and free payloads
Method: as §1

CO[C@@]12[C@H](COC(N)=O)C3=C(C(=O)C(C)=C(N)C3=O)N1C[C@@H]1N[C@@H]12 [Mitomycin (free payload), Mitomycin C]
IC50 [1]: 94 nM
IC50 [2]: > 100 nM
IC50 [3]: 905 nM
